Test results: patent publication US11406600B2, “Anhydrous dasatinib-containing preparation” (SAWAI PHARMACEUTICAL CO., LTD., priority 2017, dated 2022)

Key:
[1] = Color change (ΔE) after light irradiation, spectral color contrast meter; type: physicochemical; settings: irradiated with 10000 Lux./hr of light for 5 days; based on color tone immediately after manufacturing; mean of 5 tablets
Method: Using a spectral color contrast meter (NIPPON DENSHOKU INDUSTRIES CO., LTD., Model: SE-6000), the color change ΔE value of the preparation irradiated with 10000Lux./hr of light for 5 days was measured based on the color tone of the preparation immediately after manufacturing, and the mean value of the measurement value of 5 tablets was calculated.
(§1) In the anhydrous dasatinib-containing tablet having the film-coating part, the amount of the film-coating part and the percentage of the titanium oxide in the film-coating part were varied, respectively, and the color change (ΔE) and the total related substances (%) of the preparations irradiated with 10000 Lux./hr of light for 5 days were determined, respectively.
For color change, the ΔE value of the amount of color change was measured using a spectral color contrast meter (NIPPON DENSHOKU INDUSTRIES CO., LTD., Model: SE-6000) based on the color tone of the drug product immediately after manufacturing, and the mean value of the measured value of 5 tablets was calculated.

[2] = Total related substances (%) by liquid chromatography after light irradiation; type: physicochemical; settings: irradiated with 10000 Lux./hr of light for 5 days; peak area ratio, LC, 230 nm
Method: In the description, the purities of the anhydrous dasatinib were evaluated using liquid chromatography as an assessment of the stability. The ratio of the peak area of related substances derived from the anhydrous dasatinib to that of the anhydrous dasatinib was calculated to determine the total related substances (%).
as §1
For the total related substances, the purities of the anhydrous dasatinib were evaluated using liquid chromatography as shown below. The ratio of the peak area of the related substances derived from the anhydrous dasatinib to that of the anhydrous dasatinib was calculated to determine the total related substances (%). Specifically, a column was octadecylsilated silica gels (particle size, 5 μm; column inner diameter, 4.6 mm; column length, 250 mm; GL Sciences), mobile phase A was 0.01 M aqueous potassium dihydrogen phosphate solution, mobile phase B was acetonitrile, and the detector was ultraviolet absorbance spectrophotometer (measured wavelength: 230 nm), respectively. […]

[3] = 1.2 million Lux.·hr total illumination and 200 W·hr/m^2 total near-ultraviolet radiation energy; cited from earlier work

Compound: Cc1nc(Nc2ncc(C(=O)Nc3c(C)cccc3Cl)s2)cc(N2CCN(CCO)CC2)n1 [Comparative Example 1, anhydrous dasatinib]
- color change ΔE value [1]: 18.56
- total related substances (%) [2]: 0.51%

Compound: Cc1nc(Nc2ncc(C(=O)Nc3c(C)cccc3Cl)s2)cc(N2CCN(CCO)CC2)n1 [dasatinib hydrate]
- stability under light stress testing [3]: no changes were observed
